Legend:
PTK2 = target: T1, PTK2 (Homo sapiens, UniProt Q05397); experiment: PTK2 Enzyme Test (DELFIA assay, poly-Glu-Tyr substrate); type: biochemical; settings: active PTK2 enzyme, 50 μM ATP in ATP Mix, 1 h pre-incubation
T1 construct: purchased Invitrogen PV3832
Experimental: This test uses active PTK2 enzyme (Invitrogen Code PV3832) and poly-Glu-Tyr (4:1, Sigma P-0275) as the kinase substrate. The kinase activity is detected by means of the phosphorylation of the substrate in a DELFIA™ assay. The phosphorylated substrate is detected with the Europium-labelled phosphotyrosine antibody PY20 (Perkin Elmer, No.: AD0038).
In order to determine concentration-activity curves with PTK2-inhibitors the compounds are serially diluted in 10% DMSO/H2O and 10 μL of each dilution are dispensed per well in a 96-well microtitre plate (clear U-shaped base plate, Greiner No. 650101) (the inhibitors are tested in duplicates) and mixed with 10 μL/well of PTK2 kinase (0.01 μg/well). PTK2 kinase is diluted accordingly beforehand with kinase dilution buffer (20 mM TRIS/HCl pH 7.5, 0.1 mM EDTA, 0.1 mM EGTA, 0.286 mM sodium orthovanadate, 10% glycerol with the addition of freshly prepared BSA (fraction V 1 mg/mL) and DTT (1 mM)). The test compound and the PTK2 kinase are pre-incubated for 1 h at RT and shaken at 500 rpm. Then 20 μL ATP Mix (30 mM TRIS/HCl pH 7.5, 0.02% Brij, 0.2 mM sodium orthovanadate, 10 mM magnesium acetate, 0.1 mM EGTA, 1× Phosphatase Inhibitor Cocktail 1 (Sigma, No.: P2850), 50 μM ATP (Sigma, No.: A3377; 15 mM stock solution)) are added. The reaction is started by the addition of 10 μL/well of poly (Glu,Tyr) substrate (25 μg/well poly (Glu,Tyr), 0.05 μg/well biotinylated poly (Glu,Tyr) dissolved in 250 mM TRIS/HCl pH 7.5, 9 mM DTT)—the final concentration of DMSO is 2%. After 1 h kinase reaction (the plates are shaken at 500 rpm), the reaction is stopped by the addition of 12 μL/well of 100 mM EDTA, pH 8. And shaken for a further 5 min at RT (500 U/min).
55 μL of the reaction mixture are transferred into a streptavidin plate (Strepta Well High Bind (transparent, 96-well) made by Roche, No.: 11989685001) and incubated for 1 h at RT (shaking at 500 rpm). Then the microtitre plate is washed three times with 200 μL/well D-PBS (Invitrogen, No.:14190). 100 μL of 1:2000 diluted DELFIA Eu-N1 Anti-Phosphotyrosine PY20 antibody (Perkin Elmer, No.: AD0038, 1:2000 diluted in DELFIA test buffer (Perkin Elmer, No.: 1244-111)) is then added and it is incubated for 1 h at RT (shaking at 500 rpm). Then the plate is washed three times with 200 μL/well DELFIA washing buffer (Perkin Elmer, No.: 1244-114), 200 μL/well strengthening solution (Perkin Elmer, No.: 1244-105) is added and the whole is incubated for 10 min at RT (shaking at 300 rpm).
The time-delayed europium fluorescence is then measured in a microtitre plate reader (Victor, Perkin Elmer). The positive control consists of wells that contain solvent (2% DMSO in test buffer) and display uninhibited kinase activity. Wells that contain test buffer instead of enzyme act as a control for the background kinase activity.
The IC50 values are determined from concentration-activity analyses by iterative calculation using a sigmoidal curve analysis algorithm (FIFTY, based on GraphPAD Prism Version 3.03) with a variable Hill coefficient.

[1] = target: T2, PTK2-phosphorylation at tyrosine 397 (pY397) (Homo sapiens, UniProt Q05397); experiment: Phospho-PTK2 (pY397) Assay in PC-3 cells; type: cell-based; settings: PC-3 prostate carcinoma cells, 2 h incubation; read-out: PC3pPTK2 Y397 EC50
T2 construct: endogenous in cells; host or cells: PC-3 (ATCC CRL-1435)
Experimental: This cellular test is used to determine the influence of PTK2-inhibitors on the state of the PTK2-phosphorylation at tyrosine 397 (pY397).
PC-3 cells (prostate carcinoma, ATCC CRL-1435) are grown in cell culture flasks (175 cm^2) with F12 Kaighn's Medium (Gibco, No.: 21127) with the addition of 10% foetal calf serum (Invitrogen, No.: 16000-044). The cultures are incubated in the incubator at 37° C. and 5% CO2 and run twice a week.
For the test, 2×10^4 cells pro well/[…] are plated out in 96-well microtitre plates (Costar, No.: 3598) and incubated overnight in the incubator at 37° C. and 5% CO2. The test compounds (10 μL from serial dilution) are added the next day. The concentration of the test compounds usually covers a range of 50 μM and 0.8 nM. The test compounds (stock solution: 10 mM in 100% DMSO) are diluted in medium/medium 10% DMSO such that the final concentration is 1% DMSO. The cells are then incubated in the incubator at 37° C. and 5% CO2 for 2 h. Then the culture supernatant is removed and the cells are fixed with 150 μL 4% formaldehyde in D-PBS for 20 min at RT. The cell lawn is washed five times with 200 μL 0.1% Triton X-100 in D-PBS for 5 min in each case and then incubated for 90 min with blocking buffer (5% skimmed milk powder (Maresi Fixmilch) in TBST (25 mM Tris/HCl, pH 8.0, 150 mM NaCl, 0.05% Tween 20). The blocking buffer is replaced by 50 μL of the first antibody anti-phospho PTK2 [pY397] rabbit monoclonal (Invitrogen/Biosource, No.: 44-625G), which is diluted 1:200 in blocking buffer. For control purposes, alternatively a PTK2 [total] antibody (clone 4.47 mouse monoclonal, Upstate, No.: 05-537), diluted 1:400 in blocking buffer is used. This incubation is carried out at 4° C. overnight. Then the cell lawn is washed five times with 100 μL of 0.1% Tween in D-PBS for 5 min in each case and 50 μL/well of second antibody are added. In order to detect bound phospho-PTK2 [pY397] antibody a goat-anti-rabbit antibody is used which is coupled with horseradish peroxidase (Dako, No.: P0448; 1:500 dilution in blocking buffer). In order to detect bound PTK2 [total]-antibodies a rabbit-anti-mouse antibody is used, which is also coupled with horseradish peroxidase (Dako, No.: PO161; 1:1000 dilution in blocking buffer). This incubation is carried out for 1 h at RT with gentle shaking. The cell lawn is then again washed five times with 100 μL of 0.1% Tween in D-PBS for 5 min in each case. […] The EC50 values are determined from concentration-activity analyses by iterative calculation with the aid of a sigmoidal curve analysis algorithm (FIFTY, based on GraphPAD Prism Version 3.03) with a variable Hill coefficient.

T1 sequence (Q05397 whole entry): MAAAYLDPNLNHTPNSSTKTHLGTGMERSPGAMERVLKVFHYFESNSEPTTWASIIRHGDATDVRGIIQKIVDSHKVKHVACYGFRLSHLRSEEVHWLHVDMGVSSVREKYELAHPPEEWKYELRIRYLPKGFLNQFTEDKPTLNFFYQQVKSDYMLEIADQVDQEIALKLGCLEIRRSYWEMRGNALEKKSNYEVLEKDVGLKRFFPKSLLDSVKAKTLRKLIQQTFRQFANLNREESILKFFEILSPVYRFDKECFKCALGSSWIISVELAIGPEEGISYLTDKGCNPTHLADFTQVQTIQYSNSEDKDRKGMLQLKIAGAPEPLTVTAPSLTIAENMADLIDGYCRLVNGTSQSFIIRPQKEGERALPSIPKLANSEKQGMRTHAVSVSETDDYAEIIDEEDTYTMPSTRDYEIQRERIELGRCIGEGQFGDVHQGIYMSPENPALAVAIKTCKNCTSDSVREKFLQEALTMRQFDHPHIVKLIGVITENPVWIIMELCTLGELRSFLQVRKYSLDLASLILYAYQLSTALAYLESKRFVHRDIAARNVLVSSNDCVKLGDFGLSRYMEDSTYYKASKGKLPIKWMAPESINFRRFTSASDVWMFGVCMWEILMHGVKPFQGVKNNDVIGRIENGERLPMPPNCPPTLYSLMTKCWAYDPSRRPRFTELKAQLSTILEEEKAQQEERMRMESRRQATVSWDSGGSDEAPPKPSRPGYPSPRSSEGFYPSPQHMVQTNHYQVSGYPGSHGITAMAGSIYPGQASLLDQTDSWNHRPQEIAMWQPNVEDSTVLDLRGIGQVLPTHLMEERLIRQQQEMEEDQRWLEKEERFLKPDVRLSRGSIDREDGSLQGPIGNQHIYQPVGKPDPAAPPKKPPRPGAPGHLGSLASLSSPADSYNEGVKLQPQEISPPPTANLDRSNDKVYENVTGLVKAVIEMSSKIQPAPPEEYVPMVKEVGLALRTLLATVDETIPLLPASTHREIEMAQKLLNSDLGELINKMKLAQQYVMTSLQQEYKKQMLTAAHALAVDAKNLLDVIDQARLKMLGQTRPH
T2 sequence (Q05397 whole entry): as above

Structure (SMILES)	IC50 (PTK2)	EC50 [1]
COc1cc(CN(C)C)ccc1Nc1ncc(C(F)(F)F)c(NCc2ccc(F)cc2N(C)S(C)(=O)=O)n1 [Example 5]	0.86 nM	0.12 nM
CCc1cc(C(=O)NC)ccc1Nc1ncc(C(F)(F)F)c(NCc2ccc(C)cc2N(C)S(C)(=O)=O)n1 [Example 121]	2 nM	3 nM
CNC(=O)c1ccc(Nc2ncc(C(F)(F)F)c(NCc3ccc(C)cc3N(C)S(C)(=O)=O)n2)c(C)c1 [Example 130]	1 nM	–
CCCNC(=O)c1ccc(Nc2ncc(C(F)(F)F)c(NCc3ccc(F)cc3N(C)S(C)(=O)=O)n2)c(OC)c1 [Example 115]	5 nM	3 nM
COc1cc(C(=O)NC2CCN(c3ccccc3)CC2)ccc1Nc1ncc(C(F)(F)F)c(NCc2ccc(C)cc2N(C)S(C)(=O)=O)n1 [Example 55]	11 nM	0.56 nM
COc1cc(C(=O)NC2CCC(NS(C)(=O)=O)CC2)ccc1Nc1ncc(C(F)(F)F)c(NCc2ccc(C)cc2N(C)S(C)(=O)=O)n1 (centres unmarked) [Example 27]	4 nM	0.27 nM
COc1cc(C(=O)NC2CCN(C3COC3)CC2)c(F)cc1Nc1ncc(C(F)(F)F)c(NCc2ccc(C)cc2N(C)S(C)(=O)=O)n1 [Example 93]	5 nM	2 nM
COc1cc(C(=O)N[C@@H]2CCN(C)C2)c(F)cc1Nc1ncc(C(F)(F)F)c(NCc2ccc(C)cc2N(C)S(C)(=O)=O)n1 [Example 36]	2 nM	0.32 nM
Cc1ccc(CNc2nc(Nc3ccc(C(=O)N[C@H]4CC[C@H](N5CCN(CC6CC6)CC5)CC4)cc3F)ncc2C(F)(F)F)c(N(C)S(C)(=O)=O)c1 [Example 91]	3 nM	2 nM
COc1cc(C(=O)NCCN(C)C)ccc1Nc1ncc(C(F)(F)F)c(NCc2ccc(C)cc2N(C)S(C)(=O)=O)n1 [Example 4]	1 nM	0.11 nM
COc1ccc(CNc2nc(Nc3ccc(NC(C)=O)c(Cl)c3)ncc2C(F)(F)F)c(N(C)S(C)(=O)=O)c1 [Example 105]	2 nM	2 nM
COc1cc(CNC2CCC2)ccc1Nc1ncc(C(F)(F)F)c(NCc2ccc(C)cc2N(C)S(C)(=O)=O)n1 [Example 61]	2 nM	0.6 nM
CCN1CCC(NC(=O)c2cc(OC)c(Nc3ncc(C(F)(F)F)c(NCc4ccc(C)cc4N(C)S(C)(=O)=O)n3)cc2F)CC1 [Example 1]	2 nM	0.05 nM
COc1cc(C(=O)N[C@@H]2CCN(C)C2)c(Cl)cc1Nc1ncc(C(F)(F)F)c(NCc2ccc(C)cc2N(C)S(C)(=O)=O)n1 [Example 58]	3 nM	0.59 nM
COc1cc(CNC2CCOCC2)ccc1Nc1ncc(C(F)(F)F)c(NCc2ccc(C)cc2N(C)S(C)(=O)=O)n1 [Example 35]	3 nM	0.31 nM
COc1ccc(CNc2nc(Nc3cc(F)c(C(=O)N[C@@H]4CCN(C)C4)cc3OC)ncc2C(F)(F)F)c(N(C)S(C)(=O)=O)c1 [Example 41]	2 nM	0.39 nM
CCN(CC)CCNC(=O)c1ccc(Nc2ncc(C(F)(F)F)c(NCc3ccc(C)cc3N(C)S(C)(=O)=O)n2)c(OC)c1 [Example 12]	2 nM	0.16 nM
Cc1ccc(CNc2nc(Nc3cc(F)c(N4CCNCC4)cc3F)ncc2C(F)(F)F)c(N(C)S(C)(=O)=O)c1 [Example 129]	1 nM	–
CNC(=O)c1cc(OC)c(Nc2ncc(C(F)(F)F)c(NCc3ccc(OC)cc3N(C)S(C)(=O)=O)n2)cc1F [Example 127]	4 nM	–
COc1ccc(CNc2nc(Nc3cc(F)c(C(=O)NC(C)(C)C)cc3OC)ncc2C(F)(F)F)c(N(C)S(C)(=O)=O)c1 [Example 128]	22 nM	–

Results, then the molecule that gave them:

IC50 (PTK2)	EC50 [1]	Structure (SMILES)
2 nM	0.22 nM	COc1cc(C(=O)NCCN2CCCCC2)ccc1Nc1ncc(C(F)(F)F)c(NCc2ccc(C)cc2N(C)S(C)(=O)=O)n1 [Example 20]
3 nM	0.74 nM	COc1cc(C(=O)NC2CC(N3CCOCC3)C2)ccc1Nc1ncc(C(F)(F)F)c(NCc2ccc(C)cc2N(C)S(C)(=O)=O)n1 (centres unmarked) [Example 71]
3 nM	0.2 nM	COc1cc(C(=O)NC2CCN(CC(F)F)CC2)ccc1Nc1ncc(C(F)(F)F)c(NCc2ccc(C)cc2N(C)S(C)(=O)=O)n1 [Example 18]
1 nM	0.74 nM	CNC(=O)c1ccc(Nc2ncc(C(F)(F)F)c(NCc3ccc(C)cc3N(C)S(C)(=O)=O)n2)c(OC)c1 [Example 69]
3 nM	3 nM	COc1cc(C(=O)N[C@@H]2CCCN(C3COC3)C2)ccc1Nc1ncc(C(F)(F)F)c(NCc2ccc(C)cc2N(C)S(C)(=O)=O)n1 [Example 116]
4 nM	0.6 nM	COc1cc(C(=O)NC2CCOCC2)ccc1Nc1ncc(C(F)(F)F)c(NCc2ccc(C)cc2N(C)S(C)(=O)=O)n1 [Example 60]
4 nM	0.35 nM	COc1cc(C(=O)NC2CCN(C3CC3)CC2)ccc1Nc1ncc(C(F)(F)F)c(NCc2ccc(C)cc2N(C)S(C)(=O)=O)n1 [Example 38]
1 nM	2 nM	Cc1ccc(CNc2nc(Nc3ccc(C(=O)N[C@H]4CC[C@H](N5CCOCC5)CC4)cc3F)ncc2C(F)(F)F)c(N(C)S(C)(=O)=O)c1 [Example 92]
2 nM	2 nM	COc1cc(C(=O)N[C@@H]2CCCN(C)C2)ccc1Nc1ncc(C(F)(F)F)c(NCc2ccc(C)cc2N(C)S(C)(=O)=O)n1 [Example 102]
4 nM	–	CCc1cc(C(=O)NC2CCOCC2)ccc1Nc1ncc(C(F)(F)F)c(NCc2ccc(C)cc2N(C)S(C)(=O)=O)n1 [Example 132]
4 nM	–	COc1cc(C(=O)N[C@@H]2CCN(C)C[C@H]2F)ccc1Nc1ncc(C(F)(F)F)c(NCc2ccc(C)cc2N(C)S(C)(=O)=O)n1 [Example 131]
